Data as given in patent publication US20040024024A1, “Aromatic sulfone hydroxamates and their use as protease inhibitors” (priority 2001, published 2004).

Legend:
[1] = test system: solid tumor cancers (colorectal, pancreatic, ovarian, and prostate); settings: cited from earlier work
Human recombinant MMP-1 = target: T1, Human recombinant MMP-1 (Homo sapiens, UniProt P03956); test: In vitro MMP inhibition, IC50 determination (fluorogenic substrate I); format: biochemical
T1 construct: made in house; host or cells: MMP-1-transfected HT-1080 cells (spent media)
T1 sequence (P03956 100-469): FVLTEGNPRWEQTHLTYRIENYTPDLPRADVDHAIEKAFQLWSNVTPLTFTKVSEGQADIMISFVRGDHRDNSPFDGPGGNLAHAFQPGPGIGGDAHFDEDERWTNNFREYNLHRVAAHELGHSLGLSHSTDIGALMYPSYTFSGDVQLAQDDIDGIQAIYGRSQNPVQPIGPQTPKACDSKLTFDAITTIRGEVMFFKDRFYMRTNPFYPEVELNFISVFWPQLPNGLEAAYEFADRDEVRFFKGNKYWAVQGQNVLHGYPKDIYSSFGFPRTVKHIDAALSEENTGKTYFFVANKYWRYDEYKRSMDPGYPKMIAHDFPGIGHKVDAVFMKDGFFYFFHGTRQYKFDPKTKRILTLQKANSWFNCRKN
In short: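 Inhibitor dilutions were made in 100 mM Tris-HCl/100 mM NaCl/10 mM CaCl2 buffer, pH 7.5, and incubated at room temperature with activated proenzyme (from transfected HT-1080 media; APMA or trypsin) and 4 μM quenched methoxycoumarin peptide substrate. Loss of 415 nm fluorescence (328 nm excitation) against concentration gave IC50.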

Human recombinant MMP-2 = target: T2, Human recombinant MMP-2 (Homo sapiens, UniProt P08253); test: as above; format: biochemical
T2 construct: made in house; host or cells: MMP-2-transfected p2AHT2 cells
T2 sequence (P08253 110-660): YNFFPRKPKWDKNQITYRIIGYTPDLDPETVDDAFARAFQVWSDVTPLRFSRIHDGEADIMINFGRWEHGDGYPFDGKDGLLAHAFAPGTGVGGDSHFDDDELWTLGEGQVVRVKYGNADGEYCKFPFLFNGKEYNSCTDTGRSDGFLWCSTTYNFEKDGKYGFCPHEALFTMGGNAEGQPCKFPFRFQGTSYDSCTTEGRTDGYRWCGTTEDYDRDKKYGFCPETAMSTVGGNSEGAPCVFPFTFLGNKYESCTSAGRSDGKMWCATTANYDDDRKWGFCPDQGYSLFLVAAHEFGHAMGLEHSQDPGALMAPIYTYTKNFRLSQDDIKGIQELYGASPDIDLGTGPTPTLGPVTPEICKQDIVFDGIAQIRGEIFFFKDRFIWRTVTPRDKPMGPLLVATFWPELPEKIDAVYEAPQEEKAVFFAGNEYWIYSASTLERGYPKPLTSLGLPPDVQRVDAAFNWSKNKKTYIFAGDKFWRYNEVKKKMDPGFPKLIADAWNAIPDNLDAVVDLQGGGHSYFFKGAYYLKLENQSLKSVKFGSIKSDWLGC
In short: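 IC50 was derived from the concentration-dependent fall in fluorescence (ex 328, em 415 nm) on Gly-Leu cleavage of 4 μM MCA/Dpa-quenched substrate I. Assays ran at room temperature in pH 7.5 Tris/NaCl/CaCl2/Brij buffer with MMP-2 activated by trypsin or APMA; inhibitors were diluted from 1% DMSO stocks.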

Human recombinant MMP-9 = target: T3, Human recombinant MMP-9 (Homo sapiens, UniProt P14780); test: as above; format: biochemical
T3 construct: made in house; host or cells: MMP-9-transfected HT1080 cells (spent media)
T3 sequence (P14780 107-707 limits assumed): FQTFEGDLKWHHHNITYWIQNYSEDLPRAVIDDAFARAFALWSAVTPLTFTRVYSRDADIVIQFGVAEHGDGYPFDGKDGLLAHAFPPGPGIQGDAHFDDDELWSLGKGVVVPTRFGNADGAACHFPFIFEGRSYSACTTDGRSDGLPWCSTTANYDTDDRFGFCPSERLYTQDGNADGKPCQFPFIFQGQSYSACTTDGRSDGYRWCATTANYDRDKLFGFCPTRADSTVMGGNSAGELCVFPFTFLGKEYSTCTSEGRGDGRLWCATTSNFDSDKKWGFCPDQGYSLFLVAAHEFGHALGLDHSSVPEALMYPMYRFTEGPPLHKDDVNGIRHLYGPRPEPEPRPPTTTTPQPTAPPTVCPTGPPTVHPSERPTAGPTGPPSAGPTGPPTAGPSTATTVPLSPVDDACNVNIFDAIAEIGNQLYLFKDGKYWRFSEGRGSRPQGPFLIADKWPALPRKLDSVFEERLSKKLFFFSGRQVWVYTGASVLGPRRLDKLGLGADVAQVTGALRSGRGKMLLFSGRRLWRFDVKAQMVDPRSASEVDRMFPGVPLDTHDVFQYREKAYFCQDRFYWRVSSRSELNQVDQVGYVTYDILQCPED
In short: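 Reduction in fluorescence (328 nm excitation, 415 nm emission) from cleavage of 4 μM quenched peptide substrate I, measured at room temperature against inhibitor concentration, gave IC50. Enzyme: trypsin- or APMA-activated MMP-9 purified from transfected HT1080 medium; buffer 100 mM Tris, 100 mM NaCl, 10 mM CaCl2, pH 7.5.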

Human recombinant MMP-13 = target: T4, Human recombinant MMP-13 (Homo sapiens, UniProt P45452); test: as above; format: biochemical
T4 construct: made in house; host or cells: baculovirus / insect cells
In short: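 Fluorescence at 415 nm (excitation 328 nm) reports Gly-Leu cleavage of 4 μM quenched methoxycoumarin peptide substrate I. Human recombinant MMP-13, activated by trypsin or APMA, was incubated at room temperature with varied inhibitor concentrations in pH 7.5 Tris/NaCl/CaCl2 buffer; IC50 derived from reduced fluorescence.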

Human recombinant MMP-14 = target: T5, Human recombinant MMP-14 (Homo sapiens, UniProt P50281); test: as above; format: biochemical
T5 construct: The catalytic domain enzyme was expressed in E. coli inclusion bodies, solubilized in urea; made in house
In short: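 IC50 came from reduced fluorescence (ex 328 nm, em 415 nm) as inhibitor concentration rose, with 4 μM substrate I cleaved at Gly-Leu. Room-temperature incubation in pH 7.5 Tris buffer with 10 mM CaCl2; the E. coli-expressed, refolded MMP-14 catalytic domain was activated with trypsin or APMA.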

[2] = value outside parentheses (Ki in parenthesis)
[3] = substrate (I) 4 μM, room temperature, values not in parenthesis

With `CNC(=O)[C@@H](NC(=O)[C@H](CC(C)C)[C@H](O)C(=O)NO)C(C)(C)C` [Marimastat] as the compound, how does the “most common drug-related toxicity” value ([1]; clinical trials, patients) read?
Its value is “musculoskeletal pain and stiffness”.

What about the “effect on cancer-specific antigens used as surrogate markers for biological activity” value ([1]; patients with advanced, rapidly progressive, treatment-refractory solid tumor cancers) of the same compound?
The value was “dose-related reduction in the rise of cancer-specific antigens”.

With `O=C(NO)C1(S(=O)(=O)c2ccc(OCCCc3cc(-c4ccc(F)cc4)cs3)cc2)CCOCC1` [Example 607] as the compound, how does the IC50 (Human recombinant MMP-1; value outside parentheses) read?
Its IC50 is greater than 10000 nM.

What about the IC50 (Human recombinant MMP-2; value outside parentheses) of the same compound?
Its IC50 is 45.2 nM.

What about the IC50 (Human recombinant MMP-9; value outside parentheses) of the same compound?
Its IC50 is 2300 nM.

What about the IC50 (Human recombinant MMP-13; value outside parentheses) of the same compound?
Its IC50 is 0.1 nM.

What about the IC50 (Human recombinant MMP-14; value outside parentheses) of the same compound?
The IC50 was greater than 10000 nM.

Which results are given for `COc1ccc2sc(SCCCOc3ccc(S(=O)(=O)C4(C(=O)NO)CCOCC4)cc3)nc2c1` [Example 285]?
IC50 (Human recombinant MMP-1; value outside parenthesis): > 10000 nM; IC50 (Human recombinant MMP-2; value outside parenthesis): 16.7 nM; IC50 (Human recombinant MMP-9; value outside parenthesis): 23.6 nM; IC50 (Human recombinant MMP-13; value outside parenthesis): 1.8 nM; IC50 (Human recombinant MMP-14; value outside parenthesis): > 10000 nM

Which IC50 (Human recombinant MMP-1; [2]) does the source give for `O=C(NO)C1(S(=O)(=O)c2ccc(OCCCCCn3cnc4ccccc43)cc2)CCOCC1` [Example 359] here?
Its IC50 is greater than 10000 nM.

And the IC50 (Human recombinant MMP-2; [2])?
The IC50 was 2.3 nM.

What about the IC50 (Human recombinant MMP-9; [2]) of the same compound?
The IC50 was 1180 nM.

What about the IC50 (Human recombinant MMP-13; [2]) of the same compound?
Its IC50 is 1 nM.

And the IC50 (Human recombinant MMP-14; [2])?
Its IC50 is 7960 nM.

Which results are given for `O=C(NO)C1(S(=O)(=O)c2ccc(OCCCSCc3cccc(OC(F)(F)F)c3)cc2)CCOCC1` [Example 441]?
IC50 (Human recombinant MMP-1; [2]): 9000 nM; IC50 (Human recombinant MMP-2; [2]): 13 nM; IC50 (Human recombinant MMP-9; [2]): 110 nM; IC50 (Human recombinant MMP-13; [2]): 2 nM; IC50 (Human recombinant MMP-14; [2]): 2290 nM

For `COCCN1CCC(C(=O)NO)(S(=O)(=O)c2ccc(OCCCc3cccc(-c4ccccc4)c3)cc2)CC1` [Example 44], which IC50 (Human recombinant MMP-1; [3]) is on record?
The IC50 was greater than 10000 nM.

What about the IC50 (Human recombinant MMP-2; [3]) of the same compound?
Its IC50 is 133 nM.

What about the IC50 (Human recombinant MMP-9; [3]) of the same compound?
The IC50 was 154 nM.

And the IC50 (Human recombinant MMP-13; [3])?
The IC50 was 1.4 nM.

And the IC50 (Human recombinant MMP-14; [3])?
Its IC50 is 4980 nM.

Which IC50 (Human recombinant MMP-1; [2]) does the source give for `CCCCOCCCNc1ccc(S(=O)(=O)C2(C(=O)NO)CCOCC2)cc1` [Example 460] here?
Its IC50 is greater than 10000 nM.

What about the IC50 (Human recombinant MMP-2; [2]) of the same compound?
Its IC50 is 145 nM.

What about the IC50 (Human recombinant MMP-9; [2]) of the same compound?
Its IC50 is 700 nM.

And the IC50 (Human recombinant MMP-13; [2])?
Its IC50 is 25 nM.

And the IC50 (Human recombinant MMP-14; [2])?
Its IC50 is greater than 10000 nM.

Which results are given for `O=C(NO)C1(S(=O)(=O)c2ccc(OCCCn3nnc(-c4ccc(OC(F)(F)F)cc4)n3)cc2)CCOCC1` [Example 656]?
IC50 (Human recombinant MMP-1; value outside parentheses): > 10000 nM; IC50 (Human recombinant MMP-2; value outside parentheses): 408 nM; IC50 (Human recombinant MMP-9; value outside parentheses): 1180 nM; IC50 (Human recombinant MMP-13; value outside parentheses): 0.66 nM; IC50 (Human recombinant MMP-14; value outside parentheses): > 10000 nM

For `COc1ccc(-c2nnn(CCCOc3ccc(S(=O)(=O)C4(C(=O)NO)CCOCC4)cc3)n2)cc1` [Example 252], which IC50 (Human recombinant MMP-1; value outside parenthesis) is on record?
The IC50 was 5600 nM.

What about the IC50 (Human recombinant MMP-2; value outside parenthesis) of the same compound?
The IC50 was 47.9 nM.

What about the IC50 (Human recombinant MMP-9; value outside parenthesis) of the same compound?
The IC50 was 1050 nM.

What about the IC50 (Human recombinant MMP-13; value outside parenthesis) of the same compound?
The IC50 was 0.2 nM.

What about the IC50 (Human recombinant MMP-14; value outside parenthesis) of the same compound?
The IC50 was greater than 10000 nM.

With `C[C@@H]1C(=O)N(CCCOc2ccc(S(=O)(=O)C3(C(=O)NO)CCOCC3)cc2)C(=O)N1c1ccccc1` [Example 145] as the compound, how does the IC50 (Human recombinant MMP-1; value outside parenthesis) read?
The IC50 was greater than 10000 nM.

What about the IC50 (Human recombinant MMP-2; value outside parenthesis) of the same compound?
Its IC50 is 817 nM.

And the IC50 (Human recombinant MMP-9; value outside parenthesis)?
Its IC50 is 9440 nM.

What about the IC50 (Human recombinant MMP-13; value outside parenthesis) of the same compound?
Its IC50 is 2 nM.

And the IC50 (Human recombinant MMP-14; value outside parenthesis)?
Its IC50 is greater than 10000 nM.

For `O=C(NO)C1(S(=O)(=O)c2ccc(OCCCc3nnc(-c4ccccc4Cl)o3)cc2)CCOCC1` [Example 261], which IC50 (Human recombinant MMP-1; value outside parenthesis) is on record?
Its IC50 is greater than 10000 nM.

What about the IC50 (Human recombinant MMP-2; value outside parenthesis) of the same compound?
The IC50 was 178 nM.

And the IC50 (Human recombinant MMP-9; value outside parenthesis)?
Its IC50 is 1190 nM.

And the IC50 (Human recombinant MMP-13; value outside parenthesis)?
Its IC50 is 1.9 nM.

What about the IC50 (Human recombinant MMP-14; value outside parenthesis) of the same compound?
The IC50 was greater than 10000 nM.

Which IC50 (Human recombinant MMP-1; [2]) does the source give for `O=C(NO)C1(S(=O)(=O)c2ccc(OCCCOc3ccc4ccccc4c3)cc2)CCOCC1` [Example 448] here?
The IC50 was 3080 nM.

What about the IC50 (Human recombinant MMP-2; [2]) of the same compound?
The IC50 was 9 nM.

What about the IC50 (Human recombinant MMP-9; [2]) of the same compound?
Its IC50 is 116 nM.

And the IC50 (Human recombinant MMP-13; [2])?
Its IC50 is 2.7 nM.

And the IC50 (Human recombinant MMP-14; [2])?
Its IC50 is 832 nM.

Which IC50 (Human recombinant MMP-1; [2]) does the source give for `CCCC(CCOc1ccc(S(=O)(=O)C2(C(=O)NO)CCOCC2)cc1)S(C)(=O)=O` (stereo not shown) [Example 476] here?
The IC50 was greater than 10000 nM.

And the IC50 (Human recombinant MMP-2; [2])?
The IC50 was 2500 nM.

What about the IC50 (Human recombinant MMP-9; [2]) of the same compound?
Its IC50 is greater than 10000 nM.

What about the IC50 (Human recombinant MMP-13; [2]) of the same compound?
Its IC50 is 230 nM.

What about the IC50 (Human recombinant MMP-14; [2]) of the same compound?
The IC50 was greater than 10000 nM.

With `COc1ccc(/C(C)=C/CCCOc2ccc(S(=O)(=O)C3(C(=O)NO)CCOCC3)cc2)cc1` [Example 28, tetrahydro-N-hydroxy-4-[[4[[(4E)-5-(4-methoxyphenyl)-4-hexenyl]oxy]phenyl]sulfonyl]-2H-pyran-4-carboxamide] as the compound, how does the IC50 (Human recombinant MMP-1; [3]) read?
Its IC50 is greater than 10000 nM.

And the IC50 (Human recombinant MMP-2; [3])?
Its IC50 is 76.4 nM.

And the IC50 (Human recombinant MMP-9; [3])?
Its IC50 is 3710 nM.

What about the IC50 (Human recombinant MMP-13; [3]) of the same compound?
Its IC50 is 7 nM.

And the IC50 (Human recombinant MMP-14; [3])?
Its IC50 is greater than 10000 nM.
